# Measurements taken from patent US12173018B2, “Penicillin-binding protein inhibitors” (priority 2018, dated 2024).
# Key:
# [1] = target: E. coli PBP4 (Escherichia coli (strain K12), UniProt P24228); test: E. coli PBP4 Bocillin-FL fluorescence polarization competition binding assay; conditions: fluorescence polarization competition binding with Bocillin-FL; read-out: E. coli K12 PBP4 Potency (EC50)
# From the text: To determine the ability of boronic acid-based test PBP inhibitors to bind Penicillin Binding Proteins (PBPs), Bocillin-FL (fluorescently-labeled penicillin V; ThermoFisher Scientific) was used in a fluorescence polarization (FP) competition binding assay to assess inhibitor binding to PBP2, PBP3 or PBP4 from Escherichia coli. PBPs were cloned and purified as described previously (King, D. T, et al., ACS Infectious Diseases 2015, 1, 175-184). To establish assay conditions for competition binding, an enzyme titration/saturation binding experiment was initially performed. Bocillin-FL was prepared at 0.2 μM in a buffer comprised of 50 mM Hepes (pH 8.0), 300 mM NaCl and 5% (v/v) glycerol. Saturation binding was performed by mixing 40 μl of PBP solutions ranging in concentrations from 0-12 μM with 40 μl of the 0.2 μM Bocillin-FL solution, in individual wells of a black 384-well microplate. FP was measured immediately upon mixing (Excitation, 490 nm; Emission, 520 nm; g-factor, 0.96), using a Cytation3 (BioTek) microplate reader and measured continuously for up to 120 minutes. […] Assays (80 μl final volume) were performed with PBPs at a final concentration of 1.5 μM, Bocillin-FL at 0.1 μM and beta-lactam concentrations that ranged from 0-1000 μM. […] Bocillin-FL was added and the FP immediately measured for 60 minutes (90 minutes for PBP2). The beta-lactam potency was reported as the concentration of beta-lactam required to reduce binding of Bocillin-FL by […] (EC50). […] Binding assays for boronic acid PBP inhibitors were performed in an identical fashion.
# [2] = target: E. coli PBP3 (Escherichia coli (strain K12), UniProt P0AD68); test: E. coli PBP3 Bocillin-FL fluorescence polarization competition binding assay
# Summary of the method: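 Steps: purified PBP (1.5 μM final) mixed with compound (0–1000 μM) in 50 mM Hepes pH 8.0, 300 mM NaCl, 5% glycerol; Bocillin-FL added to 0.1 μM; FP (ex 490, em 520 nm) followed for 60 min. Concentration reducing Bocillin-FL binding reported as EC50.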
# [3] = target: E. coli PBP1a (Escherichia coli (strain K12), UniProt P02918); test: Radioligand competition binding assay with 14C-labeled boronic acid probe, PBP1a
# Summary of the method: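 Purified E. coli PBP1a (0.1 μM) preincubated 60 min with test boronic acid inhibitor in 20 mM Tris pH 7.5, 500 mM NaCl, 0.1% Triton X-100, then 60 min with 20 μM ^14C-labeled boronic acid probe. Bound probe recovered by spin desalting and counted by scintillation; EC50 reported.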
# [4] = tested on: E. coli DH5α empty pLBII vector control strain; test: microbe, parasite or virus in culture; format: cell-based, Escherichia coli; conditions: Escherichia coli, read-out: Microbiological Activity (MIC in mg/L), E. coli DH5α/pLBII
# Summary of the method: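 MIC was the lowest concentration visibly free of growth after 16–20 h at 37 °C, against 5×10^5 CFU/mL of the empty-pLBII DH5α control strain. Twofold compound dilutions were made in cation-adjusted Mueller-Hinton broth.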
# [5] = target: E. coli PBP2 (Escherichia coli (strain K12), UniProt P0AD65); test: E. coli PBP2 Bocillin-FL fluorescence polarization competition binding assay; conditions: fluorescence polarization competition binding with Bocillin-FL; read-out: E. coli K12 PBP2 Potency (EC50)
# Summary of the method: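 Purified PBP2 at 1.5 μM final was preincubated with boronic acid inhibitor, then Bocillin-FL added to 0.1 μM final in Hepes pH 8.0/NaCl/glycerol buffer. Polarization was monitored 90 min; the concentration halving probe binding is reported as EC50.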
# [6] = tested on: engineered strain of Escherichia coli harboring CTX-M15; test: microbe, parasite or virus in culture; format: cell-based; conditions: Escherichia coli, read-out: Microbiological Activity (MIC in mg/L), E. coli DH5α/pLBII-CTX-M15, engineered strain producing CTX-M15
# E. coli PBP1a, sequence (P02918 whole entry): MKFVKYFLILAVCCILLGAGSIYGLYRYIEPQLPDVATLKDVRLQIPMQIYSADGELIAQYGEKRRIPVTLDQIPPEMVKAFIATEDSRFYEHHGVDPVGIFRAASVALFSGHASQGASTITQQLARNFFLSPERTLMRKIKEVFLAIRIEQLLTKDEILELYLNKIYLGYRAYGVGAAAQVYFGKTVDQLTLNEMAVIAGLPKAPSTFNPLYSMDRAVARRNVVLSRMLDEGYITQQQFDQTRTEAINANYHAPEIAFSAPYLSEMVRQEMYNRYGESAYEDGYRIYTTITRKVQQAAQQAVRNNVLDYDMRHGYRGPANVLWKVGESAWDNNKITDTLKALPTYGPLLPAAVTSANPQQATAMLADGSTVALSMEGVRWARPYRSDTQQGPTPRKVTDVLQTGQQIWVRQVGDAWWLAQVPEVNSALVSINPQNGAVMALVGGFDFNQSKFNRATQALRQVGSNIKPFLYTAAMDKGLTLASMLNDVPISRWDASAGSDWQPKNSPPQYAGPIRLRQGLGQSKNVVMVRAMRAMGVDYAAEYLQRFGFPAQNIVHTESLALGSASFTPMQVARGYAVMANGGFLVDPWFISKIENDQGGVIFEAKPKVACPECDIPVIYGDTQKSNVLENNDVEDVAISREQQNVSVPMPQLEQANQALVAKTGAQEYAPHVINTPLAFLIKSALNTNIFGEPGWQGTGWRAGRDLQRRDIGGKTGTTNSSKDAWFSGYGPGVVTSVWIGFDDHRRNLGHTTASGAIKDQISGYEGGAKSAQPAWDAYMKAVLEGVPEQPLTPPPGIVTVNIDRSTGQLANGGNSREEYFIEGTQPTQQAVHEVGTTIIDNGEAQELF
# E. coli PBP3, sequence (P0AD68 whole entry): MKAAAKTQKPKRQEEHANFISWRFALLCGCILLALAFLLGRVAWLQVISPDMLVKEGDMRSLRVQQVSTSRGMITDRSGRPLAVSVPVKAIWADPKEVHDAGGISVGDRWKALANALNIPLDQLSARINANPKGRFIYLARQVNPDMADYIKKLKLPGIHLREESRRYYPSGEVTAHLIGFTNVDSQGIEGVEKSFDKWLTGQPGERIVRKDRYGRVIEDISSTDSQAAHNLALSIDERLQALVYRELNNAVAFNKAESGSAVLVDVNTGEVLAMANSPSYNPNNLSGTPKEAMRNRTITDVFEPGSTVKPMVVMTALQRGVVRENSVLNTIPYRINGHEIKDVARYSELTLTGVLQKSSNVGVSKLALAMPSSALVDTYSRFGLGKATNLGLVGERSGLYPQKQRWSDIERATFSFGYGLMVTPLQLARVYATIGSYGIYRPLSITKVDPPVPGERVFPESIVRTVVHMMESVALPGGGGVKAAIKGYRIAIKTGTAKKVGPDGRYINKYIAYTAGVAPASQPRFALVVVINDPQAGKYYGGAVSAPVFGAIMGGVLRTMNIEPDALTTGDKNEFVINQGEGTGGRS
# E. coli PBP2, sequence (P0AD65 whole entry): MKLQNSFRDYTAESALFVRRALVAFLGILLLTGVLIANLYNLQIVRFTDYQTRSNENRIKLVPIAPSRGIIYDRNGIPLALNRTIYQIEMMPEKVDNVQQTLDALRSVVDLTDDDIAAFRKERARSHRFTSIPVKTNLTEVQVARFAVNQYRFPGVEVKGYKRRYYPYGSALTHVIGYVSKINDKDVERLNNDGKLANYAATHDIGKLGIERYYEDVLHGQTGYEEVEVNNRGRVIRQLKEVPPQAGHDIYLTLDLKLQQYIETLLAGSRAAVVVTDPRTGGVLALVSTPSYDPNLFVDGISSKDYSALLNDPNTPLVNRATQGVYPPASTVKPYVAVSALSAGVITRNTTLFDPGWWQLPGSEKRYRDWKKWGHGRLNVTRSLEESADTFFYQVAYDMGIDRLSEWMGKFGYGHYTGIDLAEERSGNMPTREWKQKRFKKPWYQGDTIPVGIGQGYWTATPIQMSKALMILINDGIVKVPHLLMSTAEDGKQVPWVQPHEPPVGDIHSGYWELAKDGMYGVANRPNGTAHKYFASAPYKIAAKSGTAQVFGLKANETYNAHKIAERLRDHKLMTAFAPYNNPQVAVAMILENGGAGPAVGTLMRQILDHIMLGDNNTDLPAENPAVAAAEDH
# E. coli PBP4, sequence (P24228 21-477): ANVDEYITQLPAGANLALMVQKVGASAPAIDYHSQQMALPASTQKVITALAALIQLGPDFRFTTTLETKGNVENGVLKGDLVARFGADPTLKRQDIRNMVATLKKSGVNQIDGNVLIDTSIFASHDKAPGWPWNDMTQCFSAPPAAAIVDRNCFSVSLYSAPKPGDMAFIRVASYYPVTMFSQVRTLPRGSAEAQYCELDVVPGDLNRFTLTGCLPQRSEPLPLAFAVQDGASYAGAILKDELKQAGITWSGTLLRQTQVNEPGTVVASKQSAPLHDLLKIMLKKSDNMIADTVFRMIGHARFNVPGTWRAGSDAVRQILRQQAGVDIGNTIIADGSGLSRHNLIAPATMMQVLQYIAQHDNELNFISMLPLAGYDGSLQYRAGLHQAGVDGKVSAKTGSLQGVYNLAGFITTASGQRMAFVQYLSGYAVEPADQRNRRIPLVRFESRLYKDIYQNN
structure (smiles),measurement,setting,value
"CCN1CCN(C(=O)NC(C(=O)N[C@H]2Cc3cc(C)cc(C(=O)O)c3OB2O)c2csc(N)n2)C(=O)C1=O (stereo partly drawn) [Example 20, (3R)-3-(2-(2-aminothiazol-4-yl)-2-(4-ethyl-2,3-dioxopiperazine-1-carboxamido)acetamido)-2-hydroxy-6-methyl-3,4-dihydro-2H-benzo[e][1,2]oxaborinine-8-carboxylic acid]",EC50,[1],> 500 µM
same,EC50,[2],30 to 500 µM
same,EC50,[3],< 10 µM
same,MIC,[4],32 to 64 mg/L
same,EC50,[5],> 500 µM
same,MIC,[6],32 to 64 mg/L
